# Patent US20250228862A1, “METHODS OF USING ATR INHIBITORS” (Repare Therapeutics Inc., priority 2022, published 2025)
# Experiments:
# [1] = test system: ARID1A wild-type (WT) and knockout (ARID1A−/−) HCT116 cells; assay: IncuCyte growth (confluency), isogenic ARID1A WT and -/- HCT116; format: cell-based, human; conditions: HCT116 ARID1A−/− vs WT
# Protocol: FIG. 11A: Dose-response curves of isogenic ARID1A wild-type (WT) and knockout (ARID1A−/−) HCT116 cells treated with AZD-6738. Cell growth (confluency) was measured by IncuCyte automated microscopy. Data (circles) were fitted to a four-parameter dose-response model (solid lines).
# (§1) In addition to the genes disclosed herein, we investigated ATRi sensitivity to the loss of ARID1A, which was previously described in Williamson et al., Nat. Comms., 7:13837, 2016, as a bona fide biomarker of ATRi sensitivity. Three isogenic ARID1A wild-type (WT) and ARID1A-deficient (ARID1A−/−) human cell line pairs were employed: HCT116, MCF10A and BEAS2B. […] To strengthen this observation, we assembled a panel of tissue-matched cancer cell lines that were either ARID1A WT or carried deleterious ARID1A alterations (LOF) and measured their sensitivity to AZD-6738. […] In aggregate, we believe that the genes named in this Application present a list of bona fide determinants of ATRi sensitivity as opposed to certain 5 biomarkers described in the scientific literature.
# [2] = test system: ARID1A wild-type (WT) and knockout (ARID1A−/−) MCF1A cells; assay: IncuCyte growth (confluency), isogenic ARID1A WT and -/- MCF10A; format: cell-based, human; conditions: MCF10A ARID1A−/− vs WT
# Protocol: FIG. 11B: Dose-response curves of isogenic ARID1A wild-type (WT) and knockout (ARID1A−/−) MCF1A cells treated with AZD-6738. Cell growth (confluency) was measured by IncuCyte automated microscopy. Data (circles) were fitted to a four-parameter dose-response model (solid lines).
# as §1
# [3] = test system: cancer cell lines either wild-type for ARID1A (WT) or carrying deleterious ARID1A alterations (LOF); assay: IncuCyte growth assays in ARID1A WT and LOF cancer cell line panel; format: cell-based; conditions: tissue-matched cancer cell line panel
# From the text: FIG. 12: EC50 values for the ATRI AZD-6738 from IncuCyte growth assays in a panel of cancer cell lines either wild-type for ARID1A (WT) or carrying deleterious ARID1A alterations (LOF). Data (circles) from two independent experiments with mean (bars)±SD (error bars).
# as §1
# [4] = test system: ARID1A wild-type (WT) and knockout (ARID1A−/−) BEAS2B cells; assay: IncuCyte growth (confluency), isogenic ARID1A WT and -/- BEAS2B; format: cell-based, human; conditions: BEAS2B ARID1A−/− vs WT
# Protocol: FIG. 11C: Dose-response curves of isogenic ARID1A wild-type (WT) and knockout (ARID1A−/−) BEAS2B cells treated with AZD-6738. Cell growth (confluency) was measured by IncuCyte automated microscopy. Data (circles) were fitted to a four-parameter dose-response model (solid lines).
# as §1
structure (smiles),measurement,setting,value
C[C@@H]1COCCN1c1cc(C2([S@](C)(=N)=O)CC2)nc(-c2cc[nH]c3nccc2-3)n1 [AZD-6738],Sensitivity upon ARID1A deficiency,[1],did not lead to sensitivity
same,Sensitivity upon ARID1A deficiency,[2],did not lead to sensitivity
same,Sensitivity (EC50) of ARID1A LOF vs ARID1A WT cell lines,[3],no significant trend towards higher ATRi sensitivity in ARID1A LOF cell lines
same,Sensitivity upon ARID1A deficiency,[4],did not lead to sensitivity
